Reference: a melting point compilation (Tetko et al.; mined from patent text by program, amines drawn as free bases though some values may be those of a salt)

Point of comparison: `CCCC1=NN(c2ccc(S(=O)(=O)NC(C)(C)C)cc2)C(=O)C1=CNc1ccccc1OCC`, melting point 254 °C. Against it:
- OC(c1ccccc1)C(NCc1ccco1)c1ccccc1 (stereo not given) — lower, 141 to 144 °C
- O=C(O)c1cnn2c(C(F)F)cc(-c3ccc(C(F)(F)F)c(F)c3)nc12 — lower, 233 °C
- COc1cc(NC(C)=O)c(Cl)cc1C(=O)CCCCN1CCCCC1 — lower, 74 to 75 °C
- CCOCc1nc2c(N)nc3cc(OCc4ccccc4)ccc3c2n1CCCCN1CCCS1(=O)=O — lower, 225 to 227 °C
- O=C1c2ccccc2C(=O)N1CCCOc1cccc([N+](=O)[O-])c1 — lower, 149 to 152 °C
- COC(=O)c1ccc(CBr)c(SC(=O)c2ccc(C(C)(C)C)cc2)c1 — lower, 152 °C
- O=C(O)CCCCCCCCCCCCCCCI — lower, 71 to 72 °C
- CC1=C([N+](=O)[O-])C(c2ccccc2C(F)(F)F)c2c[nH]nc2N1 (stereo not given) — higher, 257 to 258 °C
- CSc1ccc(N)c(C(=O)O)c1 — lower, 145 to 150 °C
- COc1ccc(C(=O)[C@H]2CC=CC[C@H]2C(=O)O)cc1OC (relative stereo) — lower, 110 to 112 °C
- NC(Cc1cnc2ccccc2c1)C(=O)O (stereo not given) — lower, 241 to 243 °C
- OCc1cc(Cl)cc(Cl)c1Cl — lower, 90 to 93 °C
- Cc1nc2ccc(N3CCN[C@H](C)C3)nn2c1-c1ccnc2[nH]ccc12 — lower, 202 to 204 °C
- Cc1ccc(-c2nc(CCC(O[Si](C)(C)C(C)(C)C)c3ccc(C=O)s3)c(C)o2)cc1 (stereo not given) — lower, 122 to 124 °C
- COc1ccc(-c2nc(Br)c(C(F)(F)F)[nH]2)cc1 — lower, 177 to 178 °C
- O=[N+]([O-])c1ccc(-n2cccc2)c(Cl)c1 — lower, 54 to 55 °C
- Cc1c(Cl)cccc1S(=O)(=O)Nc1ccc2nc(C)n(CCO)c2c1 — lower, 213 to 214 °C
- CN(C)C(=O)Nc1ccc2c(c1)C(c1ccccc1F)=NCC(=O)N2C — lower, 97 °C
- CNCCOc1ccc(C2=C(c3ccccc3)CCCc3cc(O)ccc32)cc1 — lower, 184 to 187 °C
- CC(C)(N)c1ccc(-c2nc(Nc3ccc(F)cc3F)ncc2C#N)cc1 — lower, 203 °C
- CS(=O)c1c(C#N)nn(-c2c(Cl)cc(C(F)(F)F)cc2Cl)c1NCc1cnccn1 (stereo not given) — lower, 198 °C
- O=C1c2cc(Cl)c(Cl)cc2C(=O)c2c1c(Cl)c1cc(Cl)c(Cl)cc1c2Cl — higher, > 260 °C
- CN1CCCN=C1C(Cl)(Cl)[N+](=O)[O-] — lower, 92 to 93 °C
- CN1CC(CCCCN2CCN(c3ccccc3O)CC2)OC1=O (stereo not given) — lower, 106 to 110 °C
- Cc1cc(Nc2ccc(O)cc2)c2[nH]ncc2n1 — lower, 174 to 176 °C
- CCOC(OCC)C(N)c1nnnn1C (stereo not given) — lower, 99 to 101 °C
- Cc1ccc(-c2ccc3c(c2)C=C(C(=O)Nc2ccc(C#N)cc2)CCO3)cc1 — lower, 187 to 189 °C
- CN(C)CCN1C(=O)C(NC(=O)c2ccc(NS(C)(=O)=O)cc2)C(C)(C)SC1=S (stereo not given) — lower, 158 to 159 °C
- CC(C)(O)CCc1cc(F)c2ncc(C(=O)NCc3ccc(Cl)cc3)c(O)c2c1 — lower, 219 to 222 °C
- O=C(O)CCC(=O)c1ccc(F)c([N+](=O)[O-])c1 — lower, 136 °C
- C=C(C)COc1ccc2c(C)cc(=O)oc2c1C(=O)C=Cc1cccc(OC)c1 — lower, 85 to 87 °C
- O=C(O)c1cc(-c2ccc(C(F)(F)F)cc2)nc(-c2ccc(C(F)(F)F)cc2)c1 — higher, 289 to 290 °C
- COc1cc2c(cc1C(=O)Cc1ccc(C(=O)O)cc1)C(C)(C)CCC2(C)C — lower, 164 to 165 °C
- CC(C)c1ccc2nc(C(F)(F)F)c(C(=O)Nc3nccs3)c(O)c2c1 — higher, 262 °C
- N#CC(=Cc1ccc(F)cc1[N+](=O)[O-])C(N)=O — higher, 278 to 279 °C
- O=C1CCC(c2ccccc2)c2cc(Cl)ccc2N1 (stereo not given) — lower, 184 to 186 °C
- Cc1noc(NS(=O)(=O)c2ccsc2C(=O)Oc2ccc3c(c2)OCO3)c1Cl — lower, 189 to 191 °C
- CC(C)(C)C(Cl)=NNc1ccc([N+](=O)[O-])cc1 — lower, 94.5 to 95.5 °C
- COc1ccc(Oc2cccnc2)cc1C#CC(C)N(O)C(N)=O (stereo not given) — lower, 153 to 154 °C
- O=C1C(=O)c2ccccc2C2=C1SCC1(CCN(CCc3ccccc3)CC1)O2 — lower, 117 to 118 °C
- O=c1c(Cl)c(Cl)cnn1-c1cccc(COc2ccccc2)c1 — lower, 92 to 94 °C
- O=C(O)CS(=O)(=O)Nc1ccc(F)c(C(F)(F)F)c1 — lower, 138 to 140 °C
- CC(n1ncnn1)C(O)(c1ccc(Cl)cc1)c1ccc(C(F)(F)F)cc1 (stereo not given) — lower, 123 to 125 °C
- CC(C)(C(=O)O)n1c(=O)[nH]c2ccc(F)cc2c1=O — lower, 249 to 253 °C
- O=C(CCCCOc1ccccc1O)C(F)(F)F — lower, 51 to 52 °C
- COc1ccc(C=CC(=O)CCCCc2ccccc2)cc1O — lower, 70 to 75 °C
- CCN(CC)Cc1nc(-c2ncn3c2[C@@H]2CCN2C(=O)c2c(Br)cccc2-3)no1 — lower, 206 to 209 °C
- Cc1nc2ccccc2n(-c2ccc(Cl)cc2)c1=O — lower, 185 to 187 °C
- O=C(O)c1ccccc1OCCN1CCC(c2cn(Cc3ccco3)c3cc(F)ccc23)CC1 — lower, 174 to 175 °C
- CNC(=O)c1ccccc1Nc1nc(Nc2ccc3c(c2)CCN(CC(C)(C)F)CC3)ncc1Cl — lower, 207 to 210 °C
- COC(=O)C1(C)Oc2ccc(Cl)cc2C(C)(c2ccccc2)O1 (stereo not given) — lower, 134 °C
- C=C(c1ccccc1)c1cc2cc(OC)ccc2[nH]1 — lower, 119 to 121 °C
- O=C1NCCN1c1ccc(S(=O)(=O)Nc2cccc(Oc3ccccc3)c2)cc1 — lower, 208 to 211 °C
- CCc1cccc(CC)c1NC(=O)C1c2ccccc2COc2c(C)ccc(C)c21 (stereo not given) — lower, 104 to 106 °C
- O=[N+]([O-])c1cnn2c1-c1ccccc1NC2c1ccc(Cl)cc1 (stereo not given) — lower, 217 to 219 °C
- O=C(O)CCNC(=O)C=Cc1ccccc1 — lower, 140 to 144 °C
- COc1ccc(-c2ccc(OC(C)CC(C)Oc3ccc(-c4ccc(OC)cc4)cc3)cc2)cc1 (stereo not given) — lower, 164 °C
- CC1(c2cccc3c2CCc2ccccc2C3=O)OCCO1 — lower, 144 to 145 °C
- O=C(O)Cc1ccc(Oc2cccc(C(F)(F)F)c2)cc1 — lower, 61 to 63 °C
- Cc1cc(C)cc(C(=O)Cc2ccnc(NC(=O)OC(C)(C)C)c2)c1 — lower, 133 to 136 °C
- CCN(CC)c1ccc(C2(c3c(C)n(CCOC)c4ccccc34)OC(=O)c3ccccc32)c(C)c1 (stereo not given) — lower, 140 to 143 °C
- COc1ccc(Nc2nc3cccc(-c4ccc(CN5CCS(=O)(=O)CC5)cc4)n3n2)cc1 — lower, 241 °C
- O=C1c2cccc(SCCCCCCO)c2C(=O)c2cccc(SCCCCCCO)c21 — lower, 195 to 196 °C
- CC1c2cccc3c2N(CC3)c2ccccc2N1C(=O)CCN(C)C (stereo not given) — lower, 138 to 142 °C
- Cn1nnnc1CC(=S)NCCc1ccc(OCc2ccccc2)c(OCc2ccccc2)c1 — lower, 110 °C
- C#CCOCC1CCC(COCC#C)CC1 (stereo not given) — lower, 56 to 60 °C
- CNC(=O)c1ccccc1C(O)(c1ccc(Cl)cc1)c1ccccc1CN(C)C (stereo not given) — lower, 154 to 156 °C
- O=C1SC(Cc2ccc(OCCON=Cc3ccc4ccccc4n3)cc2)C(=O)N1C(c1ccccc1)(c1ccccc1)c1ccccc1 (stereo not given) — lower, 127 to 130 °C
- Cc1ccc(C(=S)CCCCCl)cc1 — lower, 87 to 89 °C
- COc1ccccc1Cc1nc2ccccc2c(=O)n1CCCl — lower, 109 to 111 °C
- O=C1N(C(c2ccccc2)c2ccccc2)c2cc(F)ccc2C12COc1cc3c(cc12)CCO3 (stereo not given) — lower, 194 to 196 °C
- Cc1nnc(-c2cc3cccc(NS(=O)(=O)c4cccs4)c3[nH]2)s1 — higher, 308 to 309 °C
- CCOC(=O)c1ccc(NCCCCCCCCCCCOc2ccccc2)cc1 — lower, 83 to 87 °C
- Clc1nc(-c2nc3ccccc3[nH]2)[nH]c1Cl — higher, 300 °C
- C#Cc1cnn2ccc(-c3ccc(Cl)cc3)nc12 — lower, 128 to 129 °C
- COC(=O)c1cccc(-c2ccncn2)c1 — lower, 69 to 71 °C
- CC(C)OC(=O)C1=C2SCC(=CC(=O)N(C)C)N2CC1C (stereo not given) — lower, 126 to 128 °C
- O=C(c1ccc(F)cc1)C1CCN(CCCC2CCc3onc(-c4ccc(Cl)cc4)c3C2O)CC1 (stereo not given) — lower, 152 to 155 °C
- Cn1c(=N)c(C(=O)NCCN2CCOCC2)c(O)c2cc(Cl)ccc21 — lower, 211 to 213 °C
- CC(C)(C)c1cc(Nc2cccc(Cl)c2)cc(C(C)(C)C)c1O — lower, 110 to 111 °C
- CCc1nc2c(C)cc(C)nc2n1Cc1ccc(C(c2ccccc2)C(C)C(=O)NS(C)(=O)=O)cc1 (stereo not given) — lower, 117 to 120 °C
- CS(=O)(=O)Nc1cc(C(O)CNC2CCN(c3ccc(CC4SC(=O)N(CC(=O)O)C4=O)cc3)CC2)ccc1O (stereo not given) — lower, 158 to 160 °C
- O=[PH](c1ccc(N2CCCC2)cc1)c1ccc(N2CCCC2)cc1 — lower, 199 °C
- CC(=O)OCC1CC(OC(C)=O)C(n2c(Br)nc3cc(Cl)c(Cl)cc32)C1 (stereo not given) — lower, 122 to 125 °C
- CCCCCCCCCCCCCCOc1ccc(CN(C(C)=O)c2cccc(CO)c2)cc1 — lower, 65 to 67 °C
- CC(C)C#Cc1c(C#N)nn(-c2c(Cl)cc(C(F)(F)F)cc2Cl)c1N — lower, 210 to 212 °C
- COc1cccc(C2C(=O)c3ccccc3C2=O)c1 — lower, 142 to 144 °C
- Nc1nc(-c2cc(Cl)ccc2Cl)nc(N2CCN(c3ncccn3)CC2)n1 — lower, 224 to 225 °C
- CCOC(=O)c1ccc(-n2ccc(=O)cc2)cc1 — lower, 178 to 180 °C
- CCOCCCOc1ccc(-c2ccc3c(c2)C=C(C(=O)OC)CCN3S(C)(=O)=O)cc1 — lower, 127 to 129 °C
- COc1ccc(C=CC(=O)Nc2c(CCO)nc3c(C)cc(C)cc3c2-c2ccccc2Cl)cc1OC — lower, 115 to 116 °C
- CC(C)(C)c1cc(CCc2ccccc2NC(=O)N2CCc3ccccc3C2)cc(C(C)(C)C)c1O — lower, 148 to 150 °C
- Cn1cc(C2=CC(=O)NC2=O)c2ccccc21 — lower, 229 to 231 °C
- Cc1cc(C)c2c(c1C)OCC2=O — lower, 92 to 93 °C
- NC1CCCN(C(=O)c2ccc(NC(=O)c3ccccc3Cl)cc2)c2ccccc21 (stereo not given) — lower, 176 to 178 °C
- CC(=O)Nc1cc(C(C)=O)ccc1OCCCCl — lower, 124 to 126 °C
- CCCCCCCCCCCCCCCCOC(=O)c1cc(C(=O)OCCCCCCCCCCCCCCCC)cc(S(=O)O)c1 — lower, 63 to 65 °C
- Nc1ccc(-c2ccc(-c3ccc(N)cc3Cl)o2)c(Cl)c1 — lower, 192 to 193 °C
- CC(C)(C)c1cc(C=O)c(O)c(Br)c1Cl — lower, 92 to 94 °C
